{
  "source": "patent US20240226233A1",
  "about": "“COMPOSITION COMPRISING ZAG-DERIVED PEPTIDE FOR IMPROVING SCARS AND KELOIDS” (L&C BIO CO., LTD., priority 2021, published 2024)",
  "molecules": {"B1": {"name": "zinc-alpha-2-glycoprotein (ZAG) protein (protein, listed as Homo sapiens)", "chain": "MVRMVPVLLSLLLLLGPAVPQENQDGRYSLTYIYTGLSKHVEDVPAFQALGSLNDLQFFRYNSKDRKSQPMGLWRQVEGMEDWKQDSQLQKAREDIFMETLKDIVEYYNDSNGSHVLQGRFGCEIENNRSSGAFWKYYYDGKDYIEFNKEIPAWVPFDPAAQITKQKWEAEPVYVQRAKAYLEEECPATLRKYLKYSKNILDRQDPPSVVVTSHQAPGEKKKLKCLAYDFYPGKIDVHWTRAGEVQEPELRGDVLHNGNGTYQSWVVVAVPPQDTAPYSCHVQHSSLAQPLVVPWEAS"}},
  "key": {"KFs": {"test_system": "KFs", "assay": "Scratch assay, cell migration of KFs", "type": "cell-based", "details": "KF scratched, general medium, 24 hours", "description": "(§1) HDFs and KFs were seeded in a 6-well plate. After 24 hours, the center of each well was scratched to create a wound. Thereafter, the HDF test group was treated with 10 ng/mL of TGF-β, which is overexpressed during scar formation, to create a scar environment, and then treated with the selected Z16 peptide. The migration of cells in the affected area was confirmed 24 hours later.\nas §1, with “a wound generation model.” for “a wound.”, “a scarring” for “a scar”, “with Z15mer_1 to Z15mer_4 additionally synthesized in Preparation Example 2.” for “with the selected Z16 peptide.”"}, "[1]": {"test_system": "hypertrophic scars or keloids", "assay": "Overall inhibitory effect on formation of hypertrophic scars or keloids (HDF/KF tests)", "type": "cell-based", "details": "compared with ZAG16, scratch assay HDF and KF", "description": "(§2) A CCK-8 assay was performed to select amino acid sequences corresponding to the core active region of ZAG, which has an inhibitory effect on the formation of scars, among the 18 peptide candidates. Human dermal fibroblasts (HDFs) and keloid fibroblasts (KFs) were treated with the ZAG protein-derived peptide candidates (Z1 to Z18) and the ZAG protein (ZAG) at a concentration of 10 μg/mL, and cell proliferation was then confirmed using a CCK-8 assay. A group treated with the ZAG protein alone was used as a positive control, and an untreated group was used as a negative control.\nas §1, with “a wound generation model.” for “a wound.”, “a scarring” for “a scar”, “with Z15mer_1 to Z15mer_4 additionally synthesized in Preparation Example 2.” for “with the selected Z16 peptide.”"}, "[2]": {"test_system": "collagen I, III, TGF-β, pSMAD2/3", "assay": "RNA (PCR) and protein (Western blotting) expression in scratched, TGF-β-treated HDFs", "type": "cell-based, human", "details": "HDF, TGF-β + peptide vs TGF-β-treated group; for mRNA expression of collagen I, III, and TGF-β: PCR; for protein expression of collagen I, III, TGF-β, and pSMAD2/3: Western blotting", "description": "as §1\n(§3) Cells were treated with Z16 under the same conditions as in Example 2-1, and the expression of RNA and proteins involved in the formation of hypertrophic scars or keloids was analyzed. The expression was confirmed through PCR and Western blotting.\nas §1, with “a wound generation model.” for “a wound.”, “a scarring” for “a scar”, “with Z15mer_1 to Z15mer_4 additionally synthesized in Preparation Example 2.” for “with the selected Z16 peptide.”\n(§4) Cells were treated with Z16 under the same conditions as in Example 3-1, and the expression of RNA and proteins involved in the formation of hypertrophic scars or keloids was analyzed. The expression was confirmed through PCR and Western blotting."}, "HDFs": {"test_system": "HDFs", "assay": "Scratch assay, cell migration of HDFs in TGF-β scar environment", "type": "cell-based, human", "details": "HDF scratched, 10 ng/mL TGF-β, 24 hours, compared to TGF-β-treated group", "description": "as §1\nas §1, with “a wound generation model.” for “a wound.”, “a scarring” for “a scar”, “with Z15mer_1 to Z15mer_4 additionally synthesized in Preparation Example 2.” for “with the selected Z16 peptide.”"}, "[3]": {"test_system": "collagen I, III, TGF-β, pSMAD2/3", "assay": "RNA (PCR) and protein (Western blotting) expression in scratched KFs", "type": "cell-based", "details": "KF, vs untreated negative control; for mRNA expression of collagen I, III, and TGF-β: PCR; for protein expression of collagen I, III, TGF-β, and pSMAD2/3: Western blotting", "description": "as §1, §3\nas §1, with “a wound generation model.” for “a wound.”, “a scarring” for “a scar”, “with Z15mer_1 to Z15mer_4 additionally synthesized in Preparation Example 2.” for “with the selected Z16 peptide.”\nas §4"}, "keloid fibroblasts (KFs)": {"test_system": "keloid fibroblasts (KFs)", "assay": "CCK-8 assay, cell proliferation of KFs", "type": "cell-based", "details": "KF, 10 μg/mL, compared to untreated negative control / other candidates", "description": "as §2\n(§5) Specifically, HDFs and KFs were treated with the ZAG protein (ZAG), Z16, and the ZAG protein-derived peptide candidates (Z15mer_1 to Z15mer_4) additionally synthesized in Preparation Example 2 at a concentration of 10 μg/mL, and cell proliferation was then confirmed through a CCK-8 assay."}, "[4]": {"test_system": "human dermal fibroblasts (HDFs)", "assay": "CCK-8 assay, cell proliferation of HDFs", "type": "cell-based", "details": "HDF, 10 μg/mL, compared to untreated negative control / other candidates", "description": "as §2, §5"}},
  "data": [
    {"molecule": "APGEKKKLKCLAYDF (ZAG protein-derived peptide) [Peptide Z15mer_1]", "values": [
      {"measurement": "migration of cells in the affected area", "setting": "KFs", "value": "greatest inhibition of cell migration"},
      {"measurement": "inhibition of the formation of hypertrophic scars and keloids", "setting": "[1]", "value": "more effectively than ZAG16"},
      {"measurement": "mRNA expression of collagen I, III, and TGF-β", "setting": "[2]", "value": "decreased"},
      {"measurement": "protein expression of collagen I, III, TGF-β, and pSMAD2/3", "setting": "[2]", "value": "decreased"},
      {"measurement": "migration of cells in the affected area", "setting": "HDFs", "value": "greatest inhibition of cell migration"},
      {"measurement": "mRNA expression of collagen I, III, and TGF-β", "setting": "[3]", "value": "decreased"},
      {"measurement": "protein expression of collagen I, III, TGF-β, and pSMAD2/3", "setting": "[3]", "value": "decreased"},
      {"measurement": "cell proliferation (CCK-8)", "setting": "keloid fibroblasts (KFs)", "value": "lowest proliferation"},
      {"measurement": "cell proliferation (CCK-8)", "setting": "[4]", "value": "lowest proliferation"}
    ]},
    {"molecule": "APGEKKKLKCLAYDFYPGKIDVHWTRAGEV (ZAG protein-derived peptide) [Peptide Z16]", "values": [
      {"measurement": "migration of cells in the affected area", "setting": "KFs", "value": "inhibited"},
      {"measurement": "mRNA expression of collagen I, III, and TGF-β", "setting": "[2]", "value": "decreased"},
      {"measurement": "protein expression of collagen I, III, TGF-β, and pSMAD2/3", "setting": "[2]", "value": "decreased"},
      {"measurement": "migration of cells in the affected area", "setting": "HDFs", "value": "inhibited"},
      {"measurement": "mRNA expression of collagen I, III, and TGF-β", "setting": "[3]", "value": "decreased"},
      {"measurement": "protein expression of collagen I, III, TGF-β, and pSMAD2/3", "setting": "[3]", "value": "decreased"},
      {"measurement": "cell proliferation (CCK-8)", "setting": "keloid fibroblasts (KFs)", "value": "lowest cell proliferation"},
      {"measurement": "cell proliferation (CCK-8)", "setting": "[4]", "value": "lowest cell proliferation"}
    ]},
    {"molecule": "B1", "values": [
      {"measurement": "cell proliferation (CCK-8)", "setting": "keloid fibroblasts (KFs)", "value": "decreased cell proliferation"},
      {"measurement": "cell proliferation (CCK-8)", "setting": "[4]", "value": "decreased cell proliferation"}
    ]}
  ]
}
